Reference: PubChem BioAssay AID179 (DTP/NCI, 2004)
Activity calls are given as the source filed them.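 How the source made its calls: active means compounds giving half or more protection of infected cells from virus-caused growth loss, again on retest; inactive means the rest.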

Test system: CEM cells HIV-1 protection, formazan growth assay
Assay: NCI AIDS Antiviral Assay
Conditions: for IC50: measured here: growth of uninfected CEM cells
Method in brief: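 CEM (human) cells, HIV-1 infected vs uninfected, 5-point dosing, formazan growth read-out. Retest threshold 50% protection.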

Compound	outcome	EC50	IC50
O=C(O)CCC12CC[C@]3(O)OC(=O)[C@H](C[C@@H]1C(=O)O)C23 (stereo partly drawn)	inactive	–	–
CCN(CC)CCC(=O)c1ccc(Sc2ccc(F)cc2)cc1	inactive	–	–
Cc1c(C(Cc2ccccc2N(C)C(=O)/C=C\C(=O)O)c2c[nH]c3ccccc23)c2ccccc2n1C (stereo not drawn)	–	> 363 µM	22.4 µM
CNC(=O)C(C)Oc1ccc(OCC2CCCCC2)cc1 (stereo not drawn)	–	> 170 µM	30.2 µM
CCCCCC(=O)C(C)C1=Nc2nnc(CCCCCCCc3nnc4n3C(=O)C(C(C)C(=O)CCCCC)=N4)n2C1=O (stereo not drawn)	–	> 2.45 µM	> 2.45 µM
COc1c(C)c(C/C=C(\C)CCCCO)c(OC)c(OC)c1OC	–	> 200 µM	26.3 µM
C[N+](C)(C)CC(=O)N/N=c1\cc(C(=O)Nc2ccc(N=O)cc2C#N)oc2cc(O)ccc12	–	> 372 µM	> 372 µM
Nc1ccc(Cn2ccc3c4c(N)nc(N)nc4ccc32)cc1	inactive	–	–
CN(C)c1ccc(C(=O)CCCN2CCC(O)(c3ccc(Cl)cc3)CC2)cc1	–	> 25.1 µM	> 25.1 µM
CCCCc1ccc(Nc2cc(=O)n(C)c(=O)[nH]2)cc1	–	> 200 µM	> 200 µM
Nc1nc(Cl)cc(OCC2(CO)CC=CC2)n1	–	> 200 µM	126 µM
NC(=Nc1ccccc1)N(c1ccccc1)c1nc(=S)ss1	–	> 200 µM	83.2 µM
Oc1ccc(Cl)cc1-c1[nH]c(=S)nc(-c2ccccc2)c1Cl	–	> 200 µM	> 200 µM
CC1(C)SCCCCCCCSC(C)(C)SCCCCCCCS1	–	> 63.1 µM	> 63.1 µM
COc1ccc2c(c1)CC1Cc3cc(OC)c(OC)cc3CN1CC2 (stereo not drawn)	–	> 200 µM	23.4 µM
CCC(C)c1c(N)o[nH]c1=O (stereo not drawn)	–	> 200 µM	> 200 µM
COc1ccc(C2=C(Cl)c3cc(OC)c(OC)cc3C2=O)cc1OC	–	> 200 µM	1.45 µM
CC12CC3(C)SC(C)(CC(C)(S1)S2)S3	inactive	–	–
C=CCSCCOCn1cc(C)c(=O)[nH]c1=O	–	> 200 µM	> 200 µM
O=C(O)C(CP(=O)(O)O)=C(Cl)Cl	–	> 741 µM	> 741 µM
CC(C)[Si](OCC/C=C/C1CCC(=O)C1C(O)C1CCCCC1)(C(C)C)C(C)C (stereo not drawn)	inactive	–	–
COC1=C(N=[N+]=[N-])C(=O)c2ncccc2C1=O	inactive	–	–

Compound	outcome	EC50	IC50
C#CC1OC(C)(C)OC1C1OC(C)(C)OCC1O (stereo not drawn)	inactive	–	–
ClC1=NSSC1(Cl)Cl	–	> 200 µM	27.5 µM
CCOC(=O)C(Cc1ccc(N=NN(C)C)cc1)NC(=O)CC1c2ccccc2-c2ccccc21 (stereo not drawn)	–	> 11 µM	6.46 µM
C#CCC(C#C)N(CCc1ccsc1)Cc1ccccc1 (stereo not drawn)	–	> 200 µM	67.6 µM
Cc1c(CC/C(=N\Nc2ccc([N+](=O)[O-])cc2[N+](=O)[O-])c2ccccc2)c2ccccc2n1C	inactive	–	–
NC(=O)CC[C@@H]1NC[C@H](C(O)C(O)C(O)CO)OC1=O (stereo partly drawn)	–	> 851 µM	> 851 µM
CCOC(=O)NP(=O)(Nc1ccccc1)Nc1ccccc1	–	> 200 µM	> 200 µM
O=C(CCCN1CCC(Nc2ccccc2)(c2nnnn2C2CCCCC2)CC1)c1ccc(F)cc1	–	> 200 µM	75.9 µM
O=[N+]([O-])c1ccc(-c2csc3nc(-c4ccccc4)nn23)cc1	–	> 200 µM	> 200 µM
Cc1nn(C(=O)CC(=O)Nc2ccccc2)c(C)c1N=Nc1ccccc1F	inactive	–	–
O=C=Nc1cccc(S(=O)(=O)c2cccc(N=C=O)c2)c1	–	> 200 µM	> 200 µM
COc1c2c(cc3oc(C)cc(=O)c13)OC(=N)C(C(N)=O)C2CC(=O)c1ccc(N)cc1 (stereo not drawn)	–	45.7 µM	> 100 µM
CC(C)C(CCOS(=O)(=O)O)CCC(C)[C@H]1[C@@H](O)C(O)C2[C@]3(O)C[C@@H](O)C4(O)C[C@@H](O)CC[C@]4(C)C3CC[C@@]21C (stereo partly drawn)	inactive	–	–
Nc1ccc(/C=C/c2ccc(NC(=O)c3cc(S(=O)(=O)O)c4cccnc4c3O)cc2S(=O)(=O)O)c(S(=O)(=O)O)c1	–	58.9 µM	> 200 µM
CC1CN(Cc2ccccc2)C(=N)S1 (stereo not drawn)	–	> 363 µM	288 µM
Nc1ccc2c(c1)C(=O)OC2(C(F)(F)F)C(F)(F)F	–	> 200 µM	93.3 µM
CCOP(=O)(OCC)/C(C#N)=C/c1nccn1C	inactive	–	–
Cc1cn([C@@H]2O[C@H](CO[Si](C)(C)C(C)(C)C)[C@]3(O[C@H]3C(=O)NO)[C@H]2O[Si](C)(C)C(C)(C)C)c(=O)[nH]c1=O	–	> 200 µM	1.17 µM
CCOC(Cc1c(N)[nH]c(=S)[nH]c1=O)OCC	–	> 200 µM	> 200 µM
COc1ccc(NC(=O)/C(=N\NC(=O)C[n+]2ccccc2)c2c(O)c3ccc(O)cc3oc2=O)c([N+](=O)[O-])c1	–	> 437 µM	72.4 µM
Oc1c(Br)ccc2cccnc12	–	> 20 µM	0.794 µM
O=C(c1c(O)cc(O)cc1O)C1Cc2ccccc21 (stereo not drawn)	inactive	–	–

Compound	outcome	EC50	IC50
NC1CS(=O)(=O)CC1O (stereo not drawn)	–	> 200 µM	> 200 µM
COc1ccc(NC(=O)/C(=C/c2ccc(N(CCC#N)CCC#N)cc2)NC(=O)c2cc([N+](=O)[O-])ccc2Cl)cc1	–	> 23.4 µM	> 23.4 µM
CN(C)c1ccc2nc3c(cc(Nc4cccc5cccc(Nc6cc7ccccc7c7nc8ccc(N(C)C)cc8[o+]c67)c45)c4ccccc43)[o+]c2c1	–	> 100 µM	15.1 µM
COc1ccc2oc(=O)c(-c3csc(-c4ccccc4)n3)cc2c1	inactive	–	–
CC(C)(C)[Si](C)(C)OCC1OC(n2cnc3c(=O)[nH]c(N)nc32)C(O[Si](C)(C)C(C)(C)C)C1O[Si](C)(C)C(C)(C)C (stereo not drawn)	–	> 200 µM	4.17 µM
Cc1cc2c(=O)cc(-c3ccccc3Cl)oc2c(C#N)c1C	–	> 100 µM	> 100 µM
C/C=C1\CN(C)C[C@@]2(C(=O)OC)Cc3c(n(OC)c4ccccc34)C(=O)C[C@@H]12	–	> 135 µM	97.7 µM
CSSc1ccccc1	–	> 20 µM	7.76 µM
CCC/C(Cl)=N/OC(=O)Nc1cccc(F)c1	–	> 20 µM	3.16 µM
CC(C)OC(=O)c1ccc(CCc2cc(O)c(Br)cc2O)cc1	–	> 200 µM	8.32 µM
N#C/C(=C\c1ccc(F)cc1)C(=O)c1ccccc1	–	> 70.8 µM	–
COC1C(O)C(C)OC(OC2C(Oc3cccc4c(O)c5c(=O)oc6ccc(C)c7c(=O)oc(c34)c5c67)OC(C)C3O[C@H](c4ccccc4)OC32)C1O (stereo partly drawn)	–	> 7.24 µM	0.0912 µM
NNC(=O)C(O)C(O)C(=O)NN (stereo not drawn)	–	> 1410 µM	631 µM
CCN(C(=O)N[C@@H](Cc1ccccc1)C(=O)N[C@@H](CC(C)C)C(=O)NC)c1ccccc1	–	> 200 µM	195 µM
CNc1nc(SC)nc2c1S(=O)(=O)N=CN2	–	> 263 µM	> 263 µM
COc1cc2nncc(Cl)c2cc1OC	–	> 95.5 µM	79.4 µM
CC(C)(C)N/N=C(/Cc1nc2c3c(ccc2[nH]c1=O)C(=O)c1ccccc1C3=O)C(=O)NC1=C(Cl)C(=O)c2ccccc2C1=O	–	> 11.5 µM	> 11.5 µM
O=C1c2c(nc3ccccc3c2-c2ccccc2)CN1Nc1ccccc1	–	> 87.1 µM	> 87.1 µM
O=[N+]([O-])c1ccccc1N=Nc1c(O)[nH]c2ccc(S(=O)(=O)O)cc12	–	> 200 µM	> 200 µM
COc1ccc(CC[N+](C)(C)C)cc1	–	> 200 µM	> 200 µM
O=C1CN(c2ccccc2)C(=O)CN1NCNN1CC(=O)N(c2ccccc2)CC1=O	–	> 200 µM	> 200 µM
Cn1cc([N+](=O)[O-])cc1C(=O)Nc1ccc(S(=O)(=O)O)c2cc(S(=O)(=O)O)ccc12	–	> 501 µM	> 501 µM

Compound	outcome	EC50	IC50
O=C1CSC(c2ccc([N+](=O)[O-])cc2)N1c1ccc(-c2ccc(-n3c(-c4ccccc4)nc4ccccc4c3=O)cc2)cc1 (stereo not drawn)	–	> 200 µM	39.8 µM
C/C(N=NC(=S)N1CCCCCC1)=C1\C=CC=CN1O	–	> 123 µM	2.14 µM
Cc1nc2ccc(C(F)(F)F)cc2nc1Nc1ccc(Cl)c(Cl)c1	–	> 17.8 µM	11.5 µM
N#CCCC1C(C#N)C2CC1C1C3C=CC(C3)C21 (stereo not drawn)	–	> 200 µM	> 200 µM
CCC1OC2C(CC=C(C)C)=C3OC(C)(O)C(C)(CC)C(=O)C3=C3OC(=O)C=C1C32 (stereo not drawn)	–	> 200 µM	33.1 µM
CC12CCC(C(=O)n3c1nc1ccccc13)C(C)(C)O2 (stereo not drawn)	–	> 200 µM	> 200 µM
CC1(C)CCc2ccc(OCCC#N)cc2O1	inactive	–	–
CC(C)OP(=O)(OC(C)C)C(C(C)C)N(C)C(N)=NC#N (stereo not drawn)	–	> 200 µM	> 200 µM
Cc1nc(N)c(-c2ccccc2)s1	–	> 135 µM	> 135 µM
O=S(=O)(O)c1cc2c(c(S(=O)(=O)O)c1)[O][Sb]1([O]2)[O]c2cc(S(=O)(=O)O)cc(S(=O)(=O)O)c2[O]1	–	> 324 µM	> 324 µM
COc1cc2c(cc1OC)C(C#N)(Cc1ccccc1)N(C(=O)c1ccccc1)C=C2 (stereo not drawn)	inactive	–	–
CCCN(CCCN)/[N+]([O-])=N\O	–	> 8910 µM	1580 µM
c1cc[c]([Sn]([S]c2cccc3cccnc23)([S]c2cccc3cccnc23)[c]2ccccc2)cc1	inactive	–	–
Cc1ccc(-c2nc(C)c(C(=O)Nc3ccc(Cl)cc3)s2)cc1	–	> 200 µM	> 200 µM
COC1(O)C(=O)c2ccccc2OC1(OC)c1ccc(Cl)cc1 (stereo not drawn)	–	> 200 µM	4.57 µM
CSc1ccc(/C=C2\C=Cc3ccccc32)cc1	–	> 28.8 µM	> 28.8 µM
CC(C)(C)[C@H]1CO[C@]2(c3ccccc3)[C@@H]3C[C@@H]3C(=O)N12	inactive	–	–
O=S(=O)(c1ccc(O)cc1)c1ccc(O)cc1	–	> 200 µM	158 µM
CN(C)c1ccc(/C=C/C(=O)C(C)(C)C)cc1Br	–	> 32.4 µM	21.4 µM
Nc1nc2c(ncn2C2CCC(CO)O2)c(=O)n1C(=O)c1ccccc1 (stereo not drawn)	–	37.2 µM	> 100 µM
CSc1nc(N)c2c(-c3ccccc3)c3c(nc2n1)CCCC3	–	> 200 µM	> 200 µM
COc1ccc(/C=C(\C#N)c2nc(-c3cc4ccccc4oc3=O)cs2)cc1	–	162 µM	> 200 µM
